Measured values: patent US20230339835A1, “2,3,5-TRIMETHYL-6-NONYLCYCLOHEXA-2,5-DIENE-1,4-DIONE FOR SUPPRESSING AND TREATING ALPHA-SYNUCLEINOPATHIES, TAUOPATHIES, AND OTHER DISORDERS” (PTC THERAPEUTICS, INC., priority 2018, published 2023)
In brackets after ≈: the same amount, converted by molar mass. Marks after values point to notes of the source that are not given here.

How the values were obtained:
[1] = tested on: N27 rat dopaminergic cells overexpressing a truncated human αSynuclein-GFP fusion protein; assay: Inhibition of RSL3-induced αSynuclein aggregation in N27 cells; format: cell-based; details: 60 nM RSL3, 70 nM compound, 24 hr, vs RSL3 only (Dunnett's test)
Method: N27 rat dopaminergic cells (purchased from EMD Millipore, SCC048) were transformed to stably overexpress truncated α-Synuclein fused with green fluorescent protein (GFP) with a plasmid construct obtained from Origene (RG221446). Cells were maintained in selection media which consisted of RPMI 1640 media supplemented with 10% (v/v) fetal bovine serum (Millipore, ES-009-B), 1% (v/v) Pencillin-Streptomycin (Gibco, 15140-122), 1% (v/v) L-Glutamine (Gibco, 25030-081) and 500 μg/mL of G418 (Gibco, 10131-027).
N27 rat dopaminergic cells overexpressing a truncated (112 amino acid) human αSynuclein-GFP fusion protein, as described above, were maintained in normal culture conditions as described above. The day before the experiment, cells were plated in 96 well optical bottom, black walled plates at 3,000 cells/well, and maintained at 37° C. for 24 hr. The experiment was initiated by co-treating cells with (1S,3R)-methyl 2-(2-chloroacetyl)-1-(4-(methoxycarbonyl)phenyl)-2,3,4,9-tetrahydro-1H-pyrido[3,4-b]indole-3-carboxylate (1S,3R-RSL3, described by Yang et al., Cell 156:317-331 (2014)) (60 nM) and 70 nM compounds (2,3,5-trimethyl-6-nonylcyclohexa-2,5-diene-1,4-dione (C9), 2,3,5-trimethyl-6-octylcyclohexa-2,5-diene-1,4-dione (C8), or 2,3,5-trimethyl-6-heptylcyclohexa-2,5-diene-1,4-dione (C7)) using a D300e compound printer (Tecan), and placed back in the incubator at 37° C. for 24 hr. Cells were fixed with 4% paraformaldehyde for 15 minutes at room temperature, washed 3 times with Dulbecco's phosphate-buffered saline (DPBS) buffer, and then incubated at room temperature for 48 hr with 1% Triton-X 100 solution (in DPBS) to enable selective labeling of aggregated αSynuclein. Cells were then washed and standard immunocytochemistry (ICC) methods were employed to label total αSynuclein (mouse anti-αSynuclein, 1:250, BD Biosciences). Cells were incubated with primary antibody overnight at 4° C. and then washed with DPBS 3 times the following day. Cells were then incubated at room temperature with a fluorescently conjugated secondary antibody (goat anti-mouse Alexa 647, Invitrogen) for 2 hr at room temperature. 10 nM Hoechst was also added to label nuclei, and cells were imaged on a high-content imaging platform (ThermoFisher, HSC Cellomics Arrayscan) to quantify total aggregated αSynuclein (see FIG. 3A).
Statistical analysis of samples was performed via ordinary one-way ANOVA analysis with Dunnett's multiple comparisons test, comparing RSL3 only-treated vs. RSL3 plus compound-treated cells.

[2] = target: T1, pre-formed fibrils (PFFs) of human wild-type Tau K18 fragment (Homo sapiens, UniProt P10636); assay: Cell-free Tau K18 WT pre-formed fibril disaggregation assay (Thioflavin T); format: biochemical; details: 10 μM Tau PFFs, 30 μM compound, 94 hr, vs vehicle (Dunnett's test)
T1 construct: human recombinant Tau K18 WT fragment were generated by incubating the Tau K18 monomer (Bio-Techne®); purchased Bio-Techne
T1 sequence (P10636 561-685 limits assumed): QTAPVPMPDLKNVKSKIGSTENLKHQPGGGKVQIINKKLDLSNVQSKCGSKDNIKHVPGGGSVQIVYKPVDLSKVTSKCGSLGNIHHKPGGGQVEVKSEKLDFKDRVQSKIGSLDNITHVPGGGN
Method: Summary: Compounds 2,3,5-trimethyl-6-nonylcyclohexa-2,5-diene-1,4-dione (C9), 2,3,5-trimethyl-6-octylcyclohexa-2,5-diene-1,4-dione (C8), and 2,3,5-trimethyl-6-heptylcyclohexa-2,5-diene-1,4-dione (C7) were tested for their ability to disaggregate pre-formed fibrils (PFFs) of human wild-type Tau K18 fragment, as measured by the decrease in fluorescence intensity of the aggregate-binding fluorophore, Thioflavin T, over time.
Experimental Methods: Pre-formed fibrils (PFFs) of the human recombinant Tau K18 WT fragment were generated by incubating the Tau K18 monomer (Bio-Techne®) with sodium heparin in a 1:1 ratio in presence of excess (50×) tris(2-carboxyethyl)phosphine (TCEP) as the reducing agent in Dulbecco's phosphate-buffered saline (DPBS) buffer (pH 7.4). The mixture was incubated for 4 days at 37° C. without agitation to yield PFFs in 100 μM final concentration.
Cell-free Tau disaggregation assays were set up with 10 μM of Tau PFFs in the presence of 30 μM of compound (from 10 mM stocks in DMSO) or in 0.3% (v/v) DMSO as vehicle. All solutions were prepared in DPBS buffer (pH 7.4) with 0.03% (v/v) NaN3 and 5 μM Thioflavin T (ThT), prepared as a master mix before addition of the protein or compounds. A protein master mix was first prepared the day before the assay to pre-equilibrate the Tau PFFs at 10 μM at ambient temperature and atmosphere. The next day, the pre-mixed protein solution was separated into 4 tubes (1 per condition). […]
Tau PFFs solution+/−compound and background samples were then loaded into wells of an optically transparent 96-well plate with black walls, which was sealed with a LightCycler® 480 seal (Roche Life Science), incubated at 37° C. for 15 minutes to equilibrate and the data collection was initiated. A Tecan M1000 spectrometer was used to collect data points on ThT fluorescence (ex/em 450/490 nm) every 30 minutes without agitation.
Data Analysis and Results: The maximum fluorescence intensity unit (FIU) value of the vehicle-treated Tau samples was set to 100%, to which all other FIU values were normalized relatively. […]

[3] = target: T2, recombinant human αSynuclein (Homo sapiens, UniProt P37840); assay: Cell-free αSynuclein aggregation assay (Thioflavin T); format: biochemical; details: 200 μM αSynuclein, 100 μM compound, t=24 hours, one-way ANOVA with Tukey's test
T2 construct: purchased Proteos, Inc
Method: Summary: The compound 2,3,5-trimethyl-6-nonylcyclohexa-2,5-diene-1,4-dione (“C9”), and its C8 (2,3,5-trimethyl-6-octylcyclohexa-2,5-diene-1,4-dione) and C7 (2,3,5-trimethyl-6-heptylcyclohexa-2,5-diene-1,4-dione) analogs were tested for their function as inhibitors of αSynuclein aggregation, as measured by the presence and extent of a lag phase in the kinetics of protein aggregation. Changes in the fluorescence intensity by the aggregate-binding fluorophore, Thioflavin T, were followed to report on the protein aggregation as a function of time.
Experimental Methods: Cell-free αSynuclein aggregation assays were set up with 200 μM of recombinant human αSynuclein (Proteos, Inc.) in the presence of 100 μM of compound (from 10 mM stock solutions in DMSO) or in 1% (v/v) DMSO as vehicle. All solutions were prepared in Dulbecco's phosphate-buffered saline (DPBS) buffer (pH 7.4) with 0.03% (v/v) NaN3 and 5 μM Thioflavin T (ThT), prepared as a master mix before addition of the protein or compounds. A protein master mix was then prepared and separated into 4 tubes (1 per condition). […]
Protein solution+/−compound and background samples were then loaded into wells of an optically transparent 96-well plate with black walls (Corning Costar), which was sealed with a LightCycler® 480 seal (Roche Life Science), incubated at 37° C. for 15 minutes to equilibrate, after which the data collection was started. A Tecan M1000 spectrometer was used to collect data points on ThT fluorescence (ex/em 450/490 nm) every 30 minutes. The plate was agitated by shaking in between fluorescence reads.
Data Analysis and Results: Fluorescence intensity data were collected on all the samples over time. The endpoint fluorescence intensity unit (FIU) value of the mean of vehicle-treated αSyn samples was set to 100%, and all other FIU values were normalized relative to it (see FIG. 1A). The end results were plotted as normalized ThT fluorescence (%) with respect to time.
Normalized ThT fluorescence values (% FIU) at t=24 hours were used to compare samples (see FIG. 1B). […]

[4] = Solubility in simulated fluids and water; format: physicochemical; details: for solubility at 24 h: thermodynamic from solid
Method: Solubility of Pattern A and melted solid was assessed in Fasted-State Simulated Gastric Fluid (FaSSGF), Fed-State Simulated Intestinal Fluid (FeSSIF), and Fasted-State Simulated Intestinal Fluid (FaSSIF), water, and 0.5% methyl cellulose+2% Tween80 in water. Five foil-covered 4 mL vials were prepared with 11-13 mg of as-received material (ID-1-1), 10 mm stir bars were included. Five foil-covered 4 mL vials containing between 11-13 mg of C9 were melted on a hot plate at 70° C. for 10 min and cooled to room temperature for 5 min, 10 mm stir bars were included.
Slurries were prepared with the as-received material ID-1-1 (Pattern A) and melted C9, each in 2.5 mL of simulated fluids (including 0.5% methyl cellulose+2% Tween80 in water), or water. The samples containing melted active pharmaceutical ingredient (API) were sonicated briefly, as they appeared to contain clumps of material. […] For solubility analysis 1 mL of each sample was pipetted into a syringe filter, the first 0.5 mL was filtered back into the source vial and the remaining 0.5 mL was filtered into HPLC vials with low volume inserts.
The response factor calculated with the calibration points was used to determine the concentrations of API in the simulated fluids and water. Calibration samples were prepared with as-received material (ID-1-1) in ACN. The concentrations and peak areas for each calibration point were plotted and a response factor calculated for solubility assessment.
Due to high pressures observed with the UPLC column, a different column and a modified method was employed for 24 h data points with 0.5% methyl cellulose+2% Tween80 in water, and 24 h in water (ID-30-4, ID-30-9 and ID-30-10). HPLC samples of ID-30-4 and 30-9 (those containing the methyl cellulose/Tween80 mixture) were diluted 10× with ACN. These samples plus a new set of injections of the calibration points were analyzed, a new response factor was determined, and the solubility of the remaining samples was calculated (response factor: 8084.7908; R2: 0.9989).

[5] = Humidification cycling by dynamic vapor sorption (DVS); format: physicochemical
Method: As-received material (ID 1-1) was subjected to humidification cycling by dynamic vapor sorption (DVS) instrument. The material underwent a 0.01% change in mass in the 15-75% relative humidity range, and a 0.08% change in mass over the full range of 2-95% relative humidity. Following humidification cycling, the solid was analyzed by XRPD.

SMILES | inhibition of RSL3-induced αSynuclein aggregation [1] | reduction in Tau fibril content [2] | inhibition of αSynuclein aggregation (normalized ThT fluorescence vs vehicle) [3] | Solubility at 24 hours (mg/mL) ([4]; 0.5% MC + 2% Tween80 (aq), Phenomenex Luna Phenyl Hexyl HPLC column and modified method, listed as A (melted)) | Conc. (mg/mL) at 30 min ([4]; 0.5% MC + 2% Tween80 (aq.), listed as A (melted)) | solubility at 24 h ([4]; 0.5% methyl cellulose + 2% Tween80 in water, aqueous with cosolvent or surfactant or cyclodextrin, 0.5% MC + 2% Tween80 (aq), Phenomenex Luna Phenyl Hexyl HPLC column and modified method) | Conc. (mg/mL) at 30 min ([4]; FaSSGF) | Solubility at 24 hours (mg/mL) ([4]; FaSSGF) | Conc. (mg/mL) at 30 min ([4]; FaSSIF, listed as A (melted)) | solubility at 24 h ([4]; Fasted-State Simulated Intestinal Fluid (FaSSIF), fassif) | Conc. (mg/mL) at 30 min ([4]; FeSSIF, listed as A (melted)) | solubility at 24 h ([4]; Fed-State Simulated Intestinal Fluid (FeSSIF), fessif) | Conc. (mg/mL) at 30 min ([4]; water) | Solubility at 24 hours (mg/mL) ([4]; water) | Solubility at 24 hours (mg/mL) ([4]; water, listed as A (melted)) | DVS Change Mass (wt. %) ([5]; 2-95% RH) | DVS Change Mass (wt. %) ([5]; 15-75% RH)
CCCCCCCC1=C(C)C(=O)C(C)=C(C)C1=O [Compound C7, 2,3,5-trimethyl-6-heptylcyclohexa-2,5-diene-1,4-dione] | did not demonstrate any inhibition | did not have a significant reduction | not statistically significant | – | – | – | – | – | – | – | – | – | – | – | – | – | –
CCCCCCCCCC1=C(C)C(=O)C(C)=C(C)C1=O [Melted Pattern A, 2,3,5-trimethyl-6-nonylcyclohexa-2,5-diene-1,4-dione] | – | – | – | 0.28# mg/mL | 0.22 mg/mL | 280 µg/mL | BDL | BDL | 0.02 mg/mL | 40 µg/mL (≈ 145 µM) | 0.25 mg/mL | 200 µg/mL (≈ 724 µM) | BDL | BDL | BDL# | 0.073 wt. % | 0.044 wt. %
